In ChEMBL document CHEMBL1159379, “Rhuschalcones II-VI, five new bichalcones from the root bark of Rhus pyroides” (2003):
≈ marks a conversion by molar mass, not a printed value.

What was measured:
Format in all cases: functional
[1] = test system: COLO 205; experiment: Cytotoxicity against human COLO205 cells; conditions: read-out: ED50 (the source's name)
[2] = test system: HCT-116; experiment: Cytotoxicity against human HCT116 cells; conditions: read-out: ED50 (the source's name)
[3] = test system: HT-29; experiment: Cytotoxicity against human HT-29 cells; conditions: read-out: ED50 (the source's name)
[4] = test system: HCT-15; experiment: Cytotoxicity against human HCT15 cells; conditions: read-out: ED50 (the source's name)
[5] = test system: SW-620; experiment: Cytotoxicity against human SW620 cells; conditions: read-out: ED50 (the source's name)
[6] = test system: KM12; experiment: Cytotoxicity against human KM12 cells; conditions: read-out: ED50 (the source's name)
[7] = test system: SK-MEL-5; experiment: Cytotoxicity against human SK-MEL-5 cells; conditions: read-out: LC50 (the source's name)
[8] = test system: SK-MEL-28; experiment: Cytotoxicity against human SK-MEL-28 cells; conditions: read-out: LC50 (the source's name)
[9] = test system: UACC-62; experiment: Cytotoxicity against human UACC62 cells; conditions: read-out: LC50 (the source's name)

SMILES | EC50 [1] [µg/mL] | EC50 [2] [µg/mL] | EC50 [3] [µg/mL] | EC50 [4] [µg/mL] | EC50 [5] [µg/mL] | EC50 [6] [µg/mL] | CC50 [7] [µg/mL] | CC50 [8] [µg/mL] | CC50 [9] [µg/mL]
O=C(/C=C/c1ccc(O)c(-c2cc(C(=O)/C=C/c3ccc(O)cc3)c(O)cc2O)c1)c1ccc(O)cc1O [RHUSCHALCONE VI] | 24 (≈ 47 µM) | 5 (≈ 9.79 µM) | 10 (≈ 19.6 µM) | – | – | – | – | – | –
COc1cc(O)c(C(=O)/C=C/c2ccc(O)cc2)cc1Oc1ccc(/C=C/C(=O)c2ccc(O)cc2O)cc1 [RHUSCHALCONE III] | 4 (≈ 7.63 µM) | 5 (≈ 9.53 µM) | 3 (≈ 5.72 µM) | 4 (≈ 7.63 µM) | 3 (≈ 5.72 µM) | 4 (≈ 7.63 µM) | – | – | –
COc1ccc(C(=O)/C=C/c2ccc(Oc3cc(C(=O)/C=C/c4ccc(O)cc4)c(O)cc3OC)cc2)c(O)c1 [RHUSCHALCONE I] | 11 (≈ 20.4 µM) | 5 (≈ 9.28 µM) | 3 (≈ 5.57 µM) | 51 (≈ 94.7 µM) | 42 (≈ 78 µM) | 17 (≈ 31.6 µM) | – | – | –
COc1cc(O)c(C(=O)/C=C/c2ccc(O)cc2)cc1Oc1ccc(C(=O)/C=C/c2ccc(O)cc2)c(O)c1 [RHUSCHALCONE IV] | 23 (≈ 43.8 µM) | – | – | – | – | – | 4.8 (≈ 9.15 µM) | 4.6 (≈ 8.77 µM) | 4.6 (≈ 8.77 µM)
O=C(/C=C/c1ccc(Oc2cc(C(=O)/C=C/c3ccc(O)cc3)c(O)cc2O)cc1)c1ccc(O)cc1O [RHUSCHALCONE II] | 15 (≈ 29.4 µM) | 15 (≈ 29.4 µM) | 14 (≈ 27.4 µM) | – | – | 19 (≈ 37.2 µM) | – | – | –
